Source: BigSolDB 2.1

Nc1nc2ccc(OC(F)(F)F)cc2s1
solubility (mole fraction)
Conditions | 278.15 K | 283.15 K | 288.15 K | 293.15 K | 298.15 K | 303.15 K | 308.15 K | 313.15 K | 318.15 K | 323.15 K
in 2-methoxyethanol | 0.383 | 0.398 | 0.405 | 0.419 | 0.428 | 0.436 | 0.449 | 0.459 | 0.469 | 0.478
in 2-propoxyethanol | 0.449 | 0.461 | 0.469 | 0.485 | 0.496 | 0.504 | 0.514 | 0.521 | 0.53 | 0.538
in DMAc | 0.0878 | 0.0968 | 0.106 | 0.116 | 0.129 | 0.142 | 0.156 | 0.17 | 0.188 | 0.203
in acetone | 0.371 | 0.379 | 0.387 | 0.401 | 0.414 | 0.425 | 0.437 | 0.449 | 0.464 | 0.477
in acetonitrile | 0.156 | 0.176 | 0.197 | 0.216 | 0.245 | 0.267 | 0.302 | 0.336 | 0.365 | 0.387
in ethanol | 0.179 | 0.188 | 0.198 | 0.212 | 0.222 | 0.236 | 0.254 | 0.273 | 0.294 | 0.308
in isopropyl acetate | 0.331 | 0.341 | 0.351 | 0.361 | 0.376 | 0.386 | 0.395 | 0.411 | 0.43 | 0.443
in n-butanol | 0.185 | 0.197 | 0.207 | 0.221 | 0.236 | 0.254 | 0.268 | 0.288 | 0.313 | 0.337
in n-pentanol | 0.197 | 0.205 | 0.216 | 0.231 | 0.249 | 0.264 | 0.281 | 0.303 | 0.325 | 0.342
in n-pentyl acetate | 0.348 | 0.356 | 0.365 | 0.374 | 0.385 | 0.395 | 0.408 | 0.425 | 0.439 | 0.46
in n-propanol | 0.179 | 0.189 | 0.202 | 0.215 | 0.23 | 0.249 | 0.267 | 0.287 | 0.312 | 0.333
in n-propyl acetate | 0.349 | 0.36 | 0.368 | 0.377 | 0.389 | 0.398 | 0.414 | 0.429 | 0.446 | 0.463
